The subject of data set [1] is PK1 neuroblastoma cells exposed to TPrP. Particulars: for EC50: read-out: TPrP EC50; for toxic at cc (concentration above which compound is toxic): mouse.
Data set [2] has the same test system. Put plainly: cells. Particulars: Neuroblastoma cell, 96 h, read-out: TPrP EC50.

Structures are written as SMILES. Values joined by “and” are separate entries in the source; they are usually repeats but may differ in a detail not shown here. Identical values can stand only once. Like-named read-outs stand apart in the source and are kept apart here.

Usually EC50 stands for the concentration at which the effect is half-maximal. As for `Cc1ccc(-c2ccnc(-c3ccncc3)c2)cc1S(=O)(=O)N1CCOCC1` [SR-29204, 4-((5-([2,4′-Bipyridin]-4-yl)-2-methylphenyl)sulfonyl)morpholine], the “protection at 5 nM” value in data set [1] is listed as <5 nM (100% protection at 5 nM). In data set [2], the concentration for a half-maximal effect (EC50) is < 5 nM.

In the case of `Cc1ccc(-c2nnc3c4ccccc4c(C)nn23)cc1S(=O)(=O)N1CCOCC1` [SR-843], the EC50 in data set [1] was 20 nM and 25 nM and 30 nM; in data set [2], 15 nM.

Take `Cc1ccc(-c2nnc(-c3ccc(N(C)C)cc3)[nH]2)cc1S(=O)(=O)N1CCOCC1` [SR-28124, N,N-dimethyl-4-(5-(4-methyl-3-(morpholinosulfonyl)phenyl)-4H-1,2,4-triazol-3-yl)aniline]: the “toxic at cc (concentration above which compound is toxic)” value in data set [1] is reported as 12 nM (but toxic at cc >135 nM). Also, the EC50 in data set [2] was determined as 12 nM.

As to `Cc1ccc(-c2nnc(-c3ccc([N+](=O)[O-])cc3)[nH]2)cc1S(=O)(=O)N1CCOCC1` [SR-29045, 4-((2-Methyl-5-(5-(4-nitrophenyl)-4H-1,2,4-triazol-3-yl)phenyl)sulfonyl) morpholine], the “toxic at cc (concentration above which compound is toxic)” value in data set [1] is reported as 5 nM (but toxic at cc >5 nM). Also, the 50% effective concentration (EC50) in data set [2] was determined as 5 nM.

For `Cc1ccc(-c2nnc(-c3ccccc3)[nH]2)cc1S(=O)(=O)N1CCC2(CC1)OCCO2` [SR-32705, 8-((2-Methyl-5-(5-phenyl-4H-1,2,4-triazol-3-yl)phenyl)sulfonyl)-1,4-dioxa-8-azaspiro[4.5]decane], the concentration for a half-maximal effect (EC50) in data set [2] is > 1500 nM.

Take `Cc1ccc(-c2nnc(-c3ccccc3)[nH]2)cc1S(=O)(=O)NCc1cncnc1` [SR-33344, 2-Methyl-5-(5-phenyl-4H-1,2,4-triazol-3-yl)-N-(pyrimidin-5-ylmethyl)benzene sulfonamide]: the EC50 in data set [2] was determined as 650 nM.

As to `Cc1ccc(-c2nnc(-c3ccccc3)[nH]2)cc1S(=O)(=O)N1CCC(O)C1` (stereo not drawn) [SR-32284, 1-((2-Methyl-5-(5-phenyl-4H-1,2,4-triazol-3-yl)phenyl)sulfonyl)pyrrolidin-3-ol], in data set [2], the half-maximal effective concentration (EC50) worked out at 550 nM.

Regarding `Cc1ccc(-c2nnc(-c3ccc(Br)cc3)[nH]2)cc1S(=O)(=O)N1CCOCC1` [SR-28144, 4-((5-(5-(4-Bromophenyl)-4H-1,2,4-triazol-3-yl)-2-methylphenyl)sulfonyl) morpholine], in data set [2], the 50% effective concentration (EC50) amounted to 40 nM.

As for `Cc1ccc(-c2ccnc(-c3ccccc3)c2)cc1S(=O)(=O)N1CCOCC1` [SR-28984, 4-((2-Methyl-5-(2-phenylpyridin-4-yl)phenyl)sulfonyl)morpholine], the half-maximal effective concentration (EC50) in data set [2] was found to be 30 nM.

As for `Cc1ccc(-c2nnc(-c3ccccc3)[nH]2)cc1S(=O)(=O)N1CCOCC1C` (stereo not drawn) [SR-32286, 3-Methyl-4-((2-methyl-5-(5-phenyl-4H-1,2,4-triazol-3-yl)phenyl)sulfonyl) morpholine], the half-maximal effective concentration (EC50) in data set [2] was determined as 110 nM.

For the compound `Cc1ccc(-c2c(C)nn(C)c2C)cc1S(=O)(=O)N1CCOCC1` [SR-25584, 4-((2-Methyl-5-(1,3,5-trimethyl-1H-pyrazol-4-yl)phenyl)sulfonyl)morpholine], in data set [2], the 50% effective concentration (EC50) was > 320 nM.

Consider `CC(=O)NCCNc1cc(-c2ccc(C)c(S(=O)(=O)N3CCOCC3)c2)ccn1` [SR-25104, N-(2-((4-(4-methyl-3-(morpholinosulfonyl)phenyl)pyridin-2-yl)amino)ethyl) acetamide], for which the concentration for a half-maximal effect (EC50) in data set [2] was 100 nM.

With `CC(=O)N1CCN(CCn2cc(-c3ccc(C)c(S(=O)(=O)N4CCOCC4)c3)cn2)CC1` [SR-25484, 1-(4-(2-(4-(4-Methyl-3-(morpholinosulfonyl)phenyl)-1H-pyrazol-1-yl)ethyl)piperazin-1-yl)ethan-1-one], the concentration giving a half-maximal response (EC50) in data set [2] was determined as 140 nM.

Turning to `Cc1ccc(-c2nnc(-c3ccccc3)[nH]2)cc1S(=O)(=O)NCCN1CCOCC1` [SR-31824, 2-Methyl-N-(2-morpholinoethyl)-5-(5-phenyl-4H-1,2,4-triazol-3-yl)benzene sulfonamide], in data set [2], the half-maximal effective concentration (EC50) is > 1500 nM.

As to `O=S(=O)(c1cc(-c2nnc(-c3ccccc3)[nH]2)ccc1C(F)(F)F)N1CCOCC1` [SR-28125, 4-((5-(5-Phenyl-4H-1,2,4-triazol-3-yl)-2-(trifluoromethyl)phenyl)sulfonyl) morpholine], the half-maximal effective concentration (EC50) in data set [2] turned out to be 30 nM.

Turning to `Cc1ccc(-c2nnc(C3CCCCC3)[nH]2)cc1S(=O)(=O)N1CCOCC1` [SR-28565, 4-((5-(5-Cyclohexyl-4H-1,2,4-triazol-3-yl)-2-methylphenyl)sulfonyl)morpholine], in data set [2], the EC50 turned out to be 150 nM.

As to `Cc1ccc(-c2n[nH]c(-c3ccccc3)n2)cc1S(=O)(=O)N1CCOCC1` [SR-25604-2], the EC50 in data set [2] is 40 nM.

With `Cc1ccc(-c2nnc(-c3ccccc3)[nH]2)cc1S(=O)(=O)N1CCOCC1` [SR-25604, 4-((2-Methyl-5-(5-phenyl-4H-1,2,4-triazol-3-yl)phenyl)sulfonyl)morpholine], the concentration for a half-maximal effect (EC50) in data set [1] was 30 nM and 40 nM; in data set [2] it was 35 nM.

Turning to `Cc1ccc(-c2ccnc(N3CCOCC3)c2)cc1S(=O)(=O)N1CCOCC1` [SR-29224, 4-(4-(4-Methyl-3-(morpholinosulfonyl)phenyl)pyridin-2-yl)morpholine], in data set [2], the EC50 came to 6 nM.

For `Cc1c(F)cc(-c2nnc(-c3ccccc3)[nH]2)cc1S(=O)(=O)N1CCN(CCO)CC1` [SR-33604, 2-(4-((3-Fluoro-2-methyl-5-(5-phenyl-4H-1,2,4-triazol-3-yl)phenyl)sulfonyl)piperazin-1-yl)ethan-1-ol], the EC50 in data set [2] is 90 nM.

On to `Cc1ccc(-c2nnc(C)c3ccccc23)cc1S(=O)(=O)N1CCOCC1` [SR-26424, 4-((2-Methyl-5-(4-methylphthalazin-1-yl)phenyl)sulfonyl)morpholine], for which the concentration for a half-maximal effect (EC50) in data set [2] is > 320 nM.

As for `Cc1ccc(-c2ccnc(Cl)c2)cc1S(=O)(=O)N1CCN(CCF)CC1` [SR-35017, 1-((5-(2-Chloropyridin-4-yl)-2-methylphenyl)sulfonyl)-4-(2-fluoroethyl) piperazine], in data set [2], the 50% effective concentration (EC50) amounted to 900 nM.

Source of the values: US20240124466A1, “COMPOUNDS AND USE THEREOF FOR TREATMENT OF NEURODEGENERATIVE, DEGENERATIVE AND METABOLIC DISORDERS” (VOVA IDA THERAPEUTICS, INC., priority 2020, published 2024).
